The values that follow are results of earlier work, collected in patent publication US20130266557A1, “METHODS FOR TREATMENT OF A SARCOMA USING AN EPIMETABOLIC SHIFTER (COENZYME Q10)” (priority 2009, published 2013).

SMILES strings stand for the structures.

The series deals with cancer. Particulars: Mazzio 2006; cited from earlier work.

On to `COC1=C(OC)C(=O)C(C)=CC1=O` [DMBQ, 2,3-dimethoxy-5-methyl-1,4-benzoquinone, reference compound], for which the “Potency as an anti-cancer agent relative to CoQ10” value is > 1000 times.
